Legend:
[1] = test system: PER-485 cells; experiment: 72-hour resazurin-based cytotoxicity assay, PER-485; assay type: cell-based, human; details: PER-485, KMT2A-r t(4;11), infant ALL derived
Procedure: (§1) All cell lines used in this study were mycoplasma-free and have been authenticated using STR profiling. Cells were cultured as previously described ([7], [8]). Characteristics of the leukemia cell lines used in this study are described in Supplementary Table 1 . Peripheral blood mononuclear cells from healthy donors were purchased from Australian Red Cross.
(§2) The cytotoxicity of drugs was assessed through resazurin-based assays and the inhibitory concentration resulting in 50% reduction of cell survival relative to control (IC50) was calculated as previously described ([7]). In synergy studies, cells were exposed to a dilution series of compounds, as single agents or in combination, in resazurin-based assays (72 hours) as described ([8]–[10]). The occurrence of synergy was determined with the Bliss Independence model as previously described ([8]–[10]). Bliss Prediction curves indicated the predicted percentage viability of the cells when exposed to the combination of compounds if both compounds work additively together. Synergy was visualised as the presence of a lower cell viability upon combination of two compounds compared to the viability predicted based on the presence of an additive effect of the compounds (i.e., the viability curve of the combination runs below the Bliss Prediction curve). The percentage of apoptotic cells was assessed by annexin V and 7-Aminoactinomycin D (7-AAD) (BD Biosciences, Australia) flow cytometry as previously described ([7]).

[2] = test system: U937 cells; experiment: 72-hour resazurin-based cytotoxicity assay, U937; assay type: cell-based, human; details: U937, CALM-AF10, AML
Procedure: as §1
as §2, with “The percentage of apoptotic cells was assessed by annexin V and 7-Aminoactinomycin D (7-AAD) (BD Biosciences, Australia) flow cytometry as previously described ([7]).” left out

[3] = test system: KP-MO-TS cells; experiment: 72-hour resazurin-based cytotoxicity assay, KP-MO-TS; assay type: cell-based, human; details: CALM-AF10, AML
Procedure: as §1
as §2, with “The percentage of apoptotic cells was assessed by annexin V and 7-Aminoactinomycin D (7-AAD) (BD Biosciences, Australia) flow cytometry as previously described ([7]).” left out

[4] = test system: PER-490 cells; experiment: 72-hour resazurin-based cytotoxicity assay, PER-490; assay type: cell-based, human; details: PER-490, KMT2A-r t(4;11), infant ALL
Procedure: as §1
as §2, with “The percentage of apoptotic cells was assessed by annexin V and 7-Aminoactinomycin D (7-AAD) (BD Biosciences, Australia) flow cytometry as previously described ([7]).” left out

[5] = test system: THP-1 cells; experiment: 72-hour resazurin-based cytotoxicity assay, THP-1; assay type: cell-based, human; details: THP-1, KMT2A-r t(9;11), infant AML
Procedure: as §1, §2

[6] = test system: PER-703 cells; experiment: 72-hour resazurin-based cytotoxicity assay, PER-703; assay type: cell-based, human; details: PER-703, KMT2A-r t(1;11), infant ALL derived
Procedure: as §1
as §2, with “The percentage of apoptotic cells was assessed by annexin V and 7-Aminoactinomycin D (7-AAD) (BD Biosciences, Australia) flow cytometry as previously described ([7]).” left out

[7] = test system: PER-785 cells; experiment: 72-hour resazurin-based cytotoxicity assay, PER-785; assay type: cell-based, human; details: PER-785, KMT2A-r t(4;11), infant ALL
Procedure: as §1
as §2, with “The percentage of apoptotic cells was assessed by annexin V and 7-Aminoactinomycin D (7-AAD) (BD Biosciences, Australia) flow cytometry as previously described ([7]).” left out

[8] = test system: PER-826 cells; experiment: 72-hour resazurin-based cytotoxicity assay, PER-826; assay type: cell-based, human; details: PER-826, KMT2A-r complex t(11;19), infant ALL
Procedure: as §1
as §2, with “The percentage of apoptotic cells was assessed by annexin V and 7-Aminoactinomycin D (7-AAD) (BD Biosciences, Australia) flow cytometry as previously described ([7]).” left out

[9] = test system: KOPN-8 cells; experiment: 72-hour resazurin-based cytotoxicity assay, KOPN-8; parameters: species or system human; details: KOPN-8, KMT2A-r t(11;19), infant pre-B cell ALL
Procedure: as §1
as §2, with “The percentage of apoptotic cells was assessed by annexin V and 7-Aminoactinomycin D (7-AAD) (BD Biosciences, Australia) flow cytometry as previously described ([7]).” left out

[10] = test system: MOLM-13 cells; experiment: 72-hour resazurin-based cytotoxicity assay, MOLM-13; assay type: cell-based, human; details: MOLM-13, KMT2A-r t(9;11), AML
Procedure: as §1, §2

[11] = test system: MV4;11 cells; experiment: 72-hour resazurin-based cytotoxicity assay, MV4;11; assay type: cell-based, human; details: MV4;11, KMT2A-r t(4;11), childhood AML
Procedure: as §1
as §2, with “The percentage of apoptotic cells was assessed by annexin V and 7-Aminoactinomycin D (7-AAD) (BD Biosciences, Australia) flow cytometry as previously described ([7]).” left out

[12] = test system: SEMK2 cells; experiment: 72-hour resazurin-based cytotoxicity assay, SEMK2; parameters: species or system human; details: SEMK2, KMT2A-r t(4;11), pre-B cell childhood ALL
Procedure: as §1, §2

[13] = test system: RS4;11 cells; experiment: 72-hour resazurin-based cytotoxicity assay, RS4;11; parameters: species or system human; details: RS4;11, KMT2A-r t(4;11), pre-B cell ALL
Procedure: as §1, §2

[14] = test system: CEM cells; experiment: 72-hour resazurin-based cytotoxicity assay, CEM; parameters: species or system human; details: KMT2A-wt, childhood T-cell ALL
Procedure: as §1, §2

[15] = test system: REH cells; experiment: 72-hour resazurin-based cytotoxicity assay, REH; parameters: species or system human; details: KMT2A-wt, pre-B cell ALL
Procedure: as §1, §2

[16] = test system: Jurkat cells; experiment: 72-hour resazurin-based cytotoxicity assay, Jurkat; parameters: species or system human; details: KMT2A-wt, childhood T-cell ALL
Procedure: as §1, §2

[17] = test system: KELLY cells; experiment: 72-hour resazurin-based cytotoxicity assay, KELLY; assay type: cell-based, human; details: neuroblastoma
Procedure: as §1
as §2, with “The percentage of apoptotic cells was assessed by annexin V and 7-Aminoactinomycin D (7-AAD) (BD Biosciences, Australia) flow cytometry as previously described ([7]).” left out

[18] = test system: BE(2)C cells; experiment: 72-hour resazurin-based cytotoxicity assay, BE(2)C; assay type: cell-based, human; details: childhood neuroblastoma
Procedure: as §1
as §2, with “The percentage of apoptotic cells was assessed by annexin V and 7-Aminoactinomycin D (7-AAD) (BD Biosciences, Australia) flow cytometry as previously described ([7]).” left out

[19] = test system: HEY cells; experiment: 72-hour resazurin-based cytotoxicity assay, HEY; assay type: cell-based, human; details: ovarian carcinoma
Procedure: as §1
as §2, with “The percentage of apoptotic cells was assessed by annexin V and 7-Aminoactinomycin D (7-AAD) (BD Biosciences, Australia) flow cytometry as previously described ([7]).” left out

[20] = test system: 27/87 cells; experiment: 72-hour resazurin-based cytotoxicity assay, 27/87; assay type: cell-based, human; details: 27/87, endometrioid ovarian cancer
Procedure: as §1
as §2, with “The percentage of apoptotic cells was assessed by annexin V and 7-Aminoactinomycin D (7-AAD) (BD Biosciences, Australia) flow cytometry as previously described ([7]).” left out

[21] = test system: MCF-7 cells; experiment: 72-hour resazurin-based cytotoxicity assay, MCF-7; assay type: cell-based, human; details: MCF-7, breast adenocarcinoma
Procedure: as §1
as §2, with “The percentage of apoptotic cells was assessed by annexin V and 7-Aminoactinomycin D (7-AAD) (BD Biosciences, Australia) flow cytometry as previously described ([7]).” left out

[22] = test system: H460 cells; experiment: 72-hour resazurin-based cytotoxicity assay, H460; assay type: cell-based, human; details: H460, lung carcinoma
Procedure: as §1
as §2, with “The percentage of apoptotic cells was assessed by annexin V and 7-Aminoactinomycin D (7-AAD) (BD Biosciences, Australia) flow cytometry as previously described ([7]).” left out

[23] = test system: LNCaP cells; experiment: 72-hour resazurin-based cytotoxicity assay, LNCaP; assay type: cell-based, human; details: prostate carcinoma
Procedure: as §1
as §2, with “The percentage of apoptotic cells was assessed by annexin V and 7-Aminoactinomycin D (7-AAD) (BD Biosciences, Australia) flow cytometry as previously described ([7]).” left out

[24] = test system: MRC-5 cells; experiment: 72-hour resazurin-based cytotoxicity assay, MRC-5; assay type: cell-based, human; details: MRC-5, non-malignant, normal lung
Procedure: as §1, §2

[25] = test system: WI-38 cells; experiment: 72-hour resazurin-based cytotoxicity assay, WI-38; assay type: cell-based, human; details: WI-38, non-malignant, normal lung
Procedure: as §1
as §2, with “The percentage of apoptotic cells was assessed by annexin V and 7-Aminoactinomycin D (7-AAD) (BD Biosciences, Australia) flow cytometry as previously described ([7]).” left out

[26] = test system: peripheral blood mononuclear cells from healthy donors; experiment: 72-hour resazurin-based viability assay, PBMC from healthy donors; assay type: cell-based, human; details: for IC50: PBMC, 72 h resazurin
Procedure: as §1, §2

[27] = test system: KMT2A-r cells (PER-485 and THP-1); experiment: Annexin V positive cells, KMT2A-r cells; assay type: cell-based, human; details: as early as 6 hours post-exposure; IC50 doses
Procedure: as §2

[28] = test system: cleavage of PARP and caspase-3; experiment: Western blot of apoptotic markers; assay type: cell-based, human; details: sensitive KMT2A-r leukemia cells, not in KMT2A-wt
Procedure: Western blotting experiments were performed as previously described ([7]). Antibodies used are listed in Supplementary Table 2 . Actin was used as a loading control.

[29] = test system: NR5A1 target genes ENO1 and PKM; KMT2A target genes; experiment: qRT-PCR of gene expression after treatment; assay type: cell-based, human; details: three hours
Procedure: Total RNA was isolated using a Qiagen RNeasy kit and cDNA synthesized using the iScript cDNA Synthesis Kit (BioRad). Quantitative PCR was run and analyzed on Applied Biosystem’s QuantStudio5 Real-Time PCR Detection System, using Taqman gene expression assays for genes NR5A1 (Hs00610436_m1), GUSB (Hs99999908_m1) and HPRT (Hs99999909_m1) Relative expressions were determined as previously described ([7]).

[30] = test system: PER-485 cells; experiment: Synergy study (Bliss Independence model), PER-485; assay type: cell-based, human; details: PER-485, 72 h
Procedure: as §2

[31] = test system: MOLM13 cells; experiment: Synergy study (Bliss Independence model), MOLM13; assay type: cell-based, human; details: MOLM13, 72 h
Procedure: as §2

[32] = test system: KMT2A-wt REH cells; experiment: Synergy study (Bliss Independence model), REH; assay type: cell-based, human; details: 72 h
Procedure: as §2

[33] = Mouse liver microsomal stability assay; assay type: in vitro ADME; details: mouse liver microsomes
From the text: Compound half-life was estimated by mouse liver microsomal stability assays as described ([10]).

[34] = test system: KMT2A-r PER-485 and KMT2A-wt REH cells; experiment: 72-hour resazurin-based viability assay, PER-485 versus REH; assay type: cell-based, human
Procedure: as §2

Which IC50 [1] does the source give for O=C(O)c1cc2c(cn1)[nH]c1ccccc12 [β-CCB, β-carboline-3-carboxylate] here?
The IC50 was 2.6 µM.

Which results are given for CCOC(=O)C(C)Oc1cccc2c(=O)n(CC(=O)Nc3ccc4c(c3)OCCO4)ccc12 (stereo not shown) [SID7969543]?
IC50 [2]: 1.9 µM; IC50 [3]: 1.9 µM; IC50 [1]: 1.4 µM; IC50 [4]: 1.9 µM; IC50 [5]: 2.6 µM; IC50 [6]: 4.9 µM; IC50 [7]: 5 µM; IC50 [8]: > 20 µM; IC50 [9]: > 20 µM; IC50 [10]: 1 µM; IC50 [11]: 2.5 µM; IC50 [12]: > 20 µM; IC50 [13]: > 20 µM; IC50 [14]: > 20 µM; IC50 [15]: > 20 µM; IC50 [16]: > 20 µM; IC50 [17]: > 20 µM; IC50 [18]: > 20 µM; IC50 [19]: > 20 µM; IC50 [20]: > 20 µM; IC50 [21]: > 20 µM; IC50 [22]: > 20 µM; IC50 [23]: > 20 µM; IC50 [24]: > 20 µM; IC50 [25]: > 20 µM; IC50 ([26]; Donor 1): > 20 µM; IC50 ([26]; Donor 2): > 20 µM; IC50 ([26]; Donor 3): > 20 µM; viability of peripheral blood mononuclear cells (PBMC) ([26]; healthy donors, doses that inhibit KMT2A-r leukemia cells): did not significantly impact the viability; percentage of annexin V-positive KMT2A-r cells [27]: significantly increased; cleavage of PARP and caspase-3 [28]: increased cleavage; expression of genes not regulated by NR5A1 (HOXA9, HOXA10, MEIS1, MYB) ([29]; KMT2A-r cell lines): remained unchanged; expression of NR5A1 target genes ENO1 and PKM ([29]; sensitive KMT2A-r cell lines, before induction of apoptosis): significantly decreased; combination effect (Bliss) ([30]; with cytarabine): synergy; combination effect (Bliss) ([30]; with daunorubicin): synergy; combination effect (Bliss) ([30]; with etoposide): synergy; combination effect (Bliss) ([30]; with mitoxantrone): additive; combination effect (Bliss) ([30]; with topotecan): additive; combination effect (Bliss) ([31]; with cytarabine): synergy; combination effect (Bliss) ([31]; with daunorubicin): synergy; combination effect (Bliss) ([31]; with etoposide): additive; combination effect (Bliss) ([31]; with mitoxantrone): additive; combination effect (Bliss) ([31]; with topotecan): additive; combination effect (Bliss) ([32]; with cytarabine): No synergy; combination effect (Bliss) ([32]; with daunorubicin): No synergy; combination effect (Bliss) ([32]; with etoposide): No synergy; half-life in microsomal stability assays [33]: short half-life

For CCCCCCCOc1ccc(O)cc1 [AC-45594], which “selective cytotoxicity towards KMT2A-r leukemia cells” value [34] is on record?
The value was “did not display selective cytotoxicity”.
